Data: patent US8252940B2, “5-substituted-2-imino-thiazolidinone compounds and their use as inhibitors of bacterial infection” (University of Washington, priority 2008, dated 2012)

Columns and labels:
[1] = system: bone marrow macrophages; test: Cytotoxicity of compound added directly to macrophages (LDH release)
[2] = system: P. aeruginosa twitching motility (T4P); test: Twitching assay; assay type: cell-based, Pseudomonas aeruginosa; conditions: 380 μM in motility plates
[3] = system: flagellar T3S system; test: Flagellar function: motility assay and flagellin secretion; assay type: cell-based, S. typhimurium; conditions: 380 μM
[4] = system: InvG, PrgH and PrgK; test: Abundance and membrane localization of NC proteins (Western blot of membrane fractions); assay type: cell-based, S. typhimurium; conditions: 380 μM
Procedure: FIG. 3A is an image of a Western blot of type III secretion NC proteins isolated from S. typhimurium grown in the presence (+) or absence (−) of 380 μM of Compound 1. FIG. 3B is an image of a Western blot of membrane fractions of S. typhimurium grown in the presence (+) or absence (−) of 380 μM of Compound 1. In the presence of Compound 1, InvG cellular levels and bacterial membrane localization were unaltered (FIGS. 3A and 3B). Similarly, protein levels and localization of the other NC proteins PrgH and PrgK were unchanged.

[5] = system: S. typhimurium T3S secreted substrates; assay type: cell-based; conditions: Western blot
[6] = system: Ysc T3S system; test: Secretion profile of Y. enterocolitica Ysc T3S system; assay type: cell-based, Yersinia enterocolitica; conditions: 380 μM
[7] = system: Francisella virulence protein secretion; assay type: cell-based, Francisella novicida; conditions: 380 μM
[8] = system: T2-dependent secretion of elastase; test: Elastolytic activity assay of culture supernatants (elastin Congo red); conditions: 380 μM; 18 hour culture (PAO1-C); untreated PAO1 1.881, pilD 0.098
[9] = system: Pseudomonas syringae pv tomato DC3000; test: Hypersensitivity response (HR) in non-host tobacco plants; assay type: in vivo; conditions: 380 μM, overlapping infiltration, compared with solvent alone; 24 hours
Source text: Inhibition of T3S-dependent pathogenesis of the plant pathogen, Pseudomonas syringae pv tomato DC3000 for tobacco. The bacterial plant pathogen Pseudomonas syringae pv tomato DC3000 requires T3S of virulence determinants to cause disease. The hypersensitivity response (HR) elicited by P. syringae in non-host tobacco plants depends upon a functional T3S system, representing an established virulence model for this pathogen. To determine the effect of Compound 1 on P. syringae pathogenesis for plants, overlapping infiltrations of P. syringae and Compound 1 were performed. P. syringae was inoculated on non-host tobacco plants and monitored for HR. Bacterial inoculations partially overlapped inoculations of either 380 μM of Compound 1 or the solvent DMSO. HR was measured by tissue collapse of plants cells in the overlapping region.
Therefore, these compounds, which blocked disease in an important model of plant pathogenesis, may have utility in preventing disease of plants.

[10] = system: invF, prgH, and sipA genes; test: Transcriptional reporter fusions of T3S genes to lacZ, β-Galactosidase activity; conditions: cultures grown in presence vs absence of compound
[11] = system: bone marrow macrophages infected with S. typhimurium; test: S. typhimurium T3-dependent cytotoxicity of bone marrow macrophages (LDH release); conditions: bacteria grown in presence of compound; multiplicity of 40; 40% without compound
[12] = system: type III secretion in S. typhimurium; test: microbe, parasite or virus in culture; assay type: cell-based, Salmonella enterica serovar Typhimurium
[13] = system: Ysa T3S system; test: Secretion profile of Y. enterocolitica Ysa T3S system; assay type: cell-based, Yersinia enterocolitica; conditions: 380 μM
[14] = molecular target: T3S needle complex (NC) (Salmonella typhimurium, UniProt P35672); assay type: cell-based, S. typhimurium
Sequence of T3S needle complex (NC) (P35672 25-562, one chain of several): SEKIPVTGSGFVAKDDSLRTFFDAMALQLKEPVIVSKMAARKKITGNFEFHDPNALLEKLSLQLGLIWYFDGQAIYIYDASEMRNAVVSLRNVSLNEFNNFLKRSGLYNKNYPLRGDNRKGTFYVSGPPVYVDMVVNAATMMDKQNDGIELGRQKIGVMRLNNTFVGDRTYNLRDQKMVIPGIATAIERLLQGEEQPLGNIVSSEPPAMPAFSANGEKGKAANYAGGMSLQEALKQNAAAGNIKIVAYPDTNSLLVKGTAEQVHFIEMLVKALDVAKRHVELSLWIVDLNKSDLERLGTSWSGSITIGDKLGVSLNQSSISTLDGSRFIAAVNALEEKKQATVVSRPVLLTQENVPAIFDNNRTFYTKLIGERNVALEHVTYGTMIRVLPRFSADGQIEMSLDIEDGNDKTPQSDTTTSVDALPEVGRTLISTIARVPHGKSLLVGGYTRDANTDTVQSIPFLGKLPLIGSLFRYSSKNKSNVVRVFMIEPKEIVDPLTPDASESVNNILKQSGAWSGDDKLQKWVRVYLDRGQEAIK

[15] = Salmonella enterica, TYPHIMURIUM, read-out: % inhibition of SipA secretion

## COc1cc(/C=C2\S/C(=N\c3ccccc3)N(c3ccccc3)C2=O)cc(OC)c1O [Compound 1]
[1]
  lysis of macrophages exposed to compound alone: did not lyse
[2]
  P. aeruginosa twitching motility: significantly reduced
[3]
  S. typhimurium motility: unaffected
  secretion of flagellin: unaltered
[4]
  InvG cellular levels and bacterial membrane localization: unaltered
  protein levels and localization of PrgH and PrgK: unchanged
[5]
  secretion of SipA and SspH1 expressed from the T3S-independent lac promoter: Neither of these proteins was secreted
[5]; cultures grown in presence of compound
  amount of T3 secreted proteins SipA, B, and C: marked decrease
[6]
  Yop proteins in culture supernatants: absent
[7]
  secretion of the known Francisella virulence proteins: inhibited secretion
[8]
  OD495, elastolytic activity of culture supernatant: 0.437
[9]
  ability of P. syringae to elicit HR: reduced ability to elicit HR
[10]
  β-Galactosidase activity of invF, prgH, sipA lacZ fusions: similar
[11]
  caspase-1 dependent cell death of macrophages: 0.5%
[12]; 380 uM
  inhibition of known T3S substrates: complete inhibition
[12]; type III secretion in S. typhimurium, SipA secretion by Western blot
  % Secretion: 0 ± 0%
[13]
  Ysp proteins in culture supernatants: absent
[14]; 380 μM, Western blot
  NC proteins in isolated needle complexes: overall reduction
[14]; electron micrographs of osmotically shocked cells
  NC number on the cell surface: marked reduction

## COc1cc(/C=C2\S/C(=N\c3ccccc3)N(C(Cc3ccncc3)C(=O)N[C@@H](CCCNC(=N)N)C(N)=O)C2=O)cc(OC)c1O (stereo partly drawn) [compound 95, (S)-5-guanidino-2-(2-((2Z,5Z)-5-(4-hydroxy-3,5-dimethoxybenzylidene)-4-oxo-2-(phenylimino)thiazolidin-3-yl)-3-(pyridin-4-yl)propanamido)pentanamide]
[12]; [15]
  inhibition at 33 µM: 8%
  inhibition at 330 µM: 89%

## COc1cc(/C=C2\S/C(=N\c3ccccc3)N([C@@H](Cc3ccc(-c4ccccc4)cc3)C(=O)N[C@@H](CCCNC(=N)N)C(N)=O)C2=O)cc(OC)c1O [compound 96]
[12]; 3.3 µM
  % inhibition of SipA secretion: 100 (330) 95 (33) 54 (3.3) %
[12]; 33 µM
  % inhibition of SipA secretion: 100 (330) 95 (33) 54 (3.3) %
[12]; 330 µM
  % inhibition of SipA secretion: 100 (330) 95 (33) 54 (3.3) %

## COc1cc(/C=C2\S/C(=N\c3ccccc3)N([C@@H](CC3CNc4ccccc43)C(=O)N[C@@H](CCCNC(=N)N)C(N)=O)C2=O)cc(OC)c1O (stereo partly drawn) [compound 98]
[12]; 3.3 μM, Western blot
  % inhibition of SipA secretion: 2%
[12]; 33 μM, Western blot
  % inhibition of SipA secretion: 12%
[12]; 330 μM, Western blot
  % inhibition of SipA secretion: 100%
